Data as given in PubChem BioAssay (NCI).
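96-well plates; 48 h exposure; 5 concentrations. Endpoints by linear interpolation between flanking doses. Not reached: highest tested concentration assigned. Definition used: TGI = concentration required for complete inhibition of growth.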

Assays:
Assay in all cases: NCI tumour cell line growth inhibition, 48 h
HCC-2998 colon = tested on: HCC-2998 colon
MDA-MB-435 = tested on: MDA-MB-435
A498 renal = tested on: A498 renal
786-0 renal = tested on: 786-0 renal
CAKI-1 renal = tested on: CAKI-1 renal
OVCAR-3 ovarian = tested on: OVCAR-3 ovarian
U251 CNS = tested on: U251 CNS
SK-MEL-28 melanoma = tested on: SK-MEL-28 melanoma
RXF 393 renal = tested on: RXF 393 renal
T-47D breast = tested on: T-47D breast
SK-MEL-2 melanoma = tested on: SK-MEL-2 melanoma
EKVX NSCLC = tested on: EKVX NSCLC
SNB-19 CNS = tested on: SNB-19 CNS
M14 melanoma = tested on: M14 melanoma
TK-10 renal = tested on: TK-10 renal
OVCAR-8 ovarian = tested on: OVCAR-8 ovarian
NCI-H460 lung = tested on: NCI-H460 lung
SK-OV-3 ovarian = tested on: SK-OV-3 ovarian
UACC-62 melanoma = tested on: UACC-62 melanoma
OVCAR-4 ovarian = tested on: OVCAR-4 ovarian
RPMI-8226 leukemia = tested on: RPMI-8226 leukemia
SF-295 CNS = tested on: SF-295 CNS
MCF7 breast = tested on: MCF7 breast
KM12 colon = tested on: KM12 colon
SF-268 CNS = tested on: SF-268 CNS
UACC-257 melanoma = tested on: UACC-257 melanoma
SF-539 CNS = tested on: SF-539 CNS
CCRF-CEM leukemia = tested on: CCRF-CEM leukemia
HOP-62 NSCLC = tested on: HOP-62 NSCLC
NCI-H226 lung = tested on: NCI-H226 lung
SNB-75 CNS = tested on: SNB-75 CNS
HCT-15 colon = tested on: HCT-15 colon
MALME-3M melanoma = tested on: MALME-3M melanoma
UO-31 renal = tested on: UO-31 renal
NCI-H522 lung = tested on: NCI-H522 lung
COLO 205 colon = tested on: COLO 205 colon
SK-MEL-5 melanoma = tested on: SK-MEL-5 melanoma
DU-145 prostate = tested on: DU-145 prostate
LOX IMVI melanoma = tested on: LOX IMVI melanoma
MDA-MB-231 breast = tested on: MDA-MB-231 breast
IGROV1 ovarian = tested on: IGROV1 ovarian
PC-3 prostate = tested on: PC-3 prostate
SN12C renal = tested on: SN12C renal
SW-620 colon = tested on: SW-620 colon
MDA-N = tested on: MDA-N
BT-549 breast = tested on: BT-549 breast
HCT-116 colon = tested on: HCT-116 colon
NCI/ADR-RES ovarian = tested on: NCI/ADR-RES ovarian
OVCAR-5 ovarian = tested on: OVCAR-5 ovarian
MOLT-4 leukemia = tested on: MOLT-4 leukemia
K-562 leukemia = tested on: K-562 leukemia
NCI-H23 lung = tested on: NCI-H23 lung
SR leukemia = tested on: SR leukemia
A549 NSCLC = tested on: A549 NSCLC
ACHN renal = tested on: ACHN renal
HOP-92 NSCLC = tested on: HOP-92 NSCLC
HT29 colon = tested on: HT29 colon
HL-60(TB) leukemia = tested on: HL-60(TB) leukemia

## NNC(=O)C1(NC(=O)c2ccccc2)C(c2ccccc2)C(c2ccccc2)=NN1c1ccccc1 (configuration not stated)
HCC-2998 colon
  TGI: > 100 µM
MDA-MB-435
  TGI: > 100 µM
A498 renal
  TGI: > 100 µM
786-0 renal
  TGI: > 100 µM
CAKI-1 renal
  TGI: 92 µM
OVCAR-3 ovarian
  TGI: > 100 µM
U251 CNS
  TGI: > 100 µM
SK-MEL-28 melanoma
  TGI: > 100 µM
RXF 393 renal
  TGI: 53.4 µM
T-47D breast
  TGI: > 100 µM
SK-MEL-2 melanoma
  TGI: > 100 µM
EKVX NSCLC
  TGI: > 100 µM
SNB-19 CNS
  TGI: > 100 µM
M14 melanoma
  TGI: 54.9 µM
TK-10 renal
  TGI: > 100 µM
OVCAR-8 ovarian
  TGI: > 100 µM
NCI-H460 lung
  TGI: > 100 µM
SK-OV-3 ovarian
  TGI: > 100 µM
UACC-62 melanoma
  TGI: 56.9 µM
OVCAR-4 ovarian
  TGI: > 100 µM
RPMI-8226 leukemia
  TGI: > 100 µM
SF-295 CNS
  TGI: > 100 µM
MCF7 breast
  TGI: > 100 µM
KM12 colon
  TGI: > 100 µM
SF-268 CNS
  TGI: > 100 µM
UACC-257 melanoma
  TGI: > 100 µM
SF-539 CNS
  TGI: > 100 µM
CCRF-CEM leukemia
  TGI: 98.4 µM
HOP-62 NSCLC
  TGI: > 100 µM
NCI-H226 lung
  TGI: > 100 µM
SNB-75 CNS
  TGI: > 100 µM
HCT-15 colon
  TGI: > 100 µM
MALME-3M melanoma
  TGI: > 100 µM
UO-31 renal
  TGI: > 100 µM
NCI-H522 lung
  TGI: > 100 µM
COLO 205 colon
  TGI: > 100 µM
SK-MEL-5 melanoma
  TGI: > 100 µM
DU-145 prostate
  TGI: > 100 µM
LOX IMVI melanoma
  TGI: > 100 µM
MDA-MB-231 breast
  TGI: > 100 µM
IGROV1 ovarian
  TGI: > 100 µM
PC-3 prostate
  TGI: > 100 µM
SN12C renal
  TGI: > 100 µM
SW-620 colon
  TGI: > 100 µM
MDA-N
  TGI: 57.9 µM
BT-549 breast
  TGI: > 100 µM
HCT-116 colon
  TGI: > 100 µM
NCI/ADR-RES ovarian
  TGI: > 100 µM
OVCAR-5 ovarian
  TGI: > 100 µM
MOLT-4 leukemia
  TGI: 40.7 µM
K-562 leukemia
  TGI: > 100 µM
NCI-H23 lung
  TGI: > 100 µM
SR leukemia
  TGI: 65.6 µM
A549 NSCLC
  TGI: > 100 µM
ACHN renal
  TGI: > 100 µM

## COc1cc(C2C(Cl)C(=O)N2c2c(C)n(C)n(-c3ccccc3)c2=O)ccc1O (configuration not stated)
MDA-MB-435
  TGI: 31.8 µM
786-0 renal
  TGI: 31.6 µM
HOP-92 NSCLC
  TGI: 74 µM
CAKI-1 renal
  TGI: > 100 µM
OVCAR-3 ovarian
  TGI: > 100 µM
U251 CNS
  TGI: 38 µM
RXF 393 renal
  TGI: 33.6 µM
T-47D breast
  TGI: > 100 µM
SK-MEL-2 melanoma
  TGI: 50.4 µM
EKVX NSCLC
  TGI: 70.2 µM
HT29 colon
  TGI: 36 µM
M14 melanoma
  TGI: 30.7 µM
TK-10 renal
  TGI: 63.5 µM
OVCAR-8 ovarian
  TGI: 43.9 µM
NCI-H460 lung
  TGI: 59.7 µM
SK-OV-3 ovarian
  TGI: 80.2 µM
UACC-62 melanoma
  TGI: 29.7 µM
OVCAR-4 ovarian
  TGI: 37.6 µM
RPMI-8226 leukemia
  TGI: 50.1 µM
SF-295 CNS
  TGI: 50 µM
MCF7 breast
  TGI: 48.7 µM
KM12 colon
  TGI: 44.6 µM
SF-268 CNS
  TGI: 75.5 µM
UACC-257 melanoma
  TGI: 40.7 µM
SF-539 CNS
  TGI: 39.4 µM
CCRF-CEM leukemia
  TGI: 79.7 µM
HOP-62 NSCLC
  TGI: 73.2 µM
NCI-H226 lung
  TGI: 53.8 µM
MALME-3M melanoma
  TGI: 61.9 µM
UO-31 renal
  TGI: 32.9 µM
NCI-H522 lung
  TGI: 31 µM
COLO 205 colon
  TGI: 34.3 µM
SK-MEL-5 melanoma
  TGI: 53.7 µM
DU-145 prostate
  TGI: > 100 µM
LOX IMVI melanoma
  TGI: 32.2 µM
MDA-MB-231 breast
  TGI: 49.1 µM
IGROV1 ovarian
  TGI: 29.1 µM
PC-3 prostate
  TGI: > 100 µM
SN12C renal
  TGI: 37.9 µM
SW-620 colon
  TGI: 36.4 µM
MDA-N
  TGI: 32.6 µM
BT-549 breast
  TGI: 45 µM
HCT-116 colon
  TGI: 19.3 µM
NCI/ADR-RES ovarian
  TGI: 75.8 µM
OVCAR-5 ovarian
  TGI: 42.7 µM
MOLT-4 leukemia
  TGI: 67 µM
K-562 leukemia
  TGI: > 100 µM
NCI-H23 lung
  TGI: 34.2 µM
HL-60(TB) leukemia
  TGI: 64.1 µM
SR leukemia
  TGI: 58.6 µM
A549 NSCLC
  TGI: 61.9 µM
ACHN renal
  TGI: 34.9 µM
